Test system: interleukin 2 (IL-2) secretion of peripheral blood mononuclear cells (PBMC)
Experiment: Antibody-induced (anti-CD3/anti-CD28) IL-2 secretion in PBMC, ELISA
Format: cell-based
Settings: 10 μM; human PBMC, anti-CD3/anti-CD28 stimulation
Description: The extent to which test substance influence antibody-induced interleukin 2 (IL-2) secretion was investigated in the following test system. IL-2 represents a central cytokine which is produced and released by activated T cells. IL-2 synthesis in the T cells is regulated by a plurality of kinases. An inhibitory effect of substances on kinases leads inter alia to inhibition of IL-2 synthesis and inhibition of the T cell immune response. The cytokine determinations were carried out using an ELISA kit.
Peripheral blood mononuclear cells (PBMC) were isolated from heparinized human whole blood by gradient centrifugation using Histopaque 1077 (Sigma) at room temperature, and the erythrocytes were lyzed hypotonically and, after washing twice in PBS, taken up in cell culture medium (10% fetal inactivated calf serum in RPMI-1640+Glutamax-I [Gibco]).
The 96 well culture plates (Costar) were previously incubated with 100 μl of antibody solution in PBS 0.1 μg/ml in PBS [Gibco]) per well at 4° C. for 18 hours. The antibodies used were anti-CD3 and anti-CD28 monoclonal antibodies (PharMingen). After washing with PBS three times, the plates were charged with 200 μl of the cell suspension (40 000 cells/well). […]
The cultures were incubated in an incubator at 37° C. for 20 hours. After this incubation, the plates were briefly shaken and centrifuged, and […] of supernatant were removed, and the supernatants were then frozen at −20° C.
Interleukin-2 was determined using an ELISA kit (Bioscience), and the absorption of the color change was analyzed in a SpectraMax 340 PC (wavelength 450 nm). Active substances brought about a reduction in the absorption.

`Clc1cccc(-c2cnc3ccc(NCCCN4CCCC4)nn23)c1` [OP 3073] and `Clc1cccc(-c2cnc3ccc(NCCCN4CCOCC4)nn23)c1` [OP 3074] cannot be ordered by inhibition at 10 µM: over 95% for the first, over 95% for the second.

`c1ccc(-c2cnc3ccc(NCCCN4CCOCC4)nn23)cc1` [OP 3071] and `c1ccc(-c2cnc3ccc(NCCCN4CCCC4)nn23)cc1` [OP 3070] cannot be ordered by inhibition at 10 µM: over 95% for the first, over 95% for the second.

Same assay, conditions: human PBMC, anti-CD3/anti-CD28 stimulation, 20 hours; read-out: IC50 (concentration for 50% inhibition of IL-2)

Compared with `CCN(CC)CCCC(C)Nc1ccc2ncc(-c3ccccc3)n2n1` (stereo not drawn) [KE1322-010-a], `CCN(CC)CCCNc1ccc2ncc(-c3ccccc3)n2n1` [KE1322-011-a] is 2.4-fold higher in IC50: 1100 nM for the first, 2600 nM for the second. The first is the more potent here.

Going from `Clc1cccc(-c2cnc3ccc(NCCCN4CCCC4)nn23)c1` [OP 3073] to `Clc1cccc(-c2cnc3ccc(NCCN4CCCC4)nn23)c1` [KE1322-024-a], the IC50 rises from 210 nM to 1000 nM (4.8-fold).

Compared with `Clc1cccc(-c2cnc3ccc(NCCCn4ccnc4)nn23)c1` [KE1322-014-a], `c1ccc(-c2cnc3ccc(NCCCn4ccnc4)nn23)cc1` [KE1322-002-a] is 1.5-fold higher in IC50: 1100 nM for the first, 1700 nM for the second.

Compared with `Cc1[nH]ncc1CCCNc1ccc2ncc(-c3ccccc3)n2n1` [KE1322-006-a], `Cc1[nH]ncc1CCCNc1ccc2ncc(-c3ccsc3)n2n1` [KE1322-042-a] is 5-fold lower in IC50: 2000 nM for the first, 400 nM for the second.

Compared with `c1ccc(-c2cnc3ccc(NCCCN4CCOCC4)nn23)cc1` [OP 3071], `c1ccc(-c2cnc3ccc(NCCCN4CCCC4)nn23)cc1` [OP 3070] is 1.8-fold lower in IC50: 2500 nM for the first, 1400 nM for the second.

`CCN(CC)CCCC(C)Nc1ccc2ncc(-c3cccc(Cl)c3)n2n1` (stereo not drawn) [KE1322-022-a] and `CCN(CC)CCCNc1ccc2ncc(-c3cccc(Cl)c3)n2n1` [KE1322-023-a] are within 1.5-fold of each other in IC50: 290 nM for the first, 210 nM for the second.

`Clc1cccc(-c2cnc3ccc(NCCCN4CCOCC4)nn23)c1` [OP 3074] and `Cc1[nH]ncc1CCCNc1ccc2ncc(-c3cnn(C)c3)n2n1` [KE1322-030-a] are within 1.5-fold of each other in IC50: 920 nM for the first, 700 nM for the second.

Molecular target: PKC theta (Homo sapiens, UniProt Q04759)
Sequence (Q04759 whole entry): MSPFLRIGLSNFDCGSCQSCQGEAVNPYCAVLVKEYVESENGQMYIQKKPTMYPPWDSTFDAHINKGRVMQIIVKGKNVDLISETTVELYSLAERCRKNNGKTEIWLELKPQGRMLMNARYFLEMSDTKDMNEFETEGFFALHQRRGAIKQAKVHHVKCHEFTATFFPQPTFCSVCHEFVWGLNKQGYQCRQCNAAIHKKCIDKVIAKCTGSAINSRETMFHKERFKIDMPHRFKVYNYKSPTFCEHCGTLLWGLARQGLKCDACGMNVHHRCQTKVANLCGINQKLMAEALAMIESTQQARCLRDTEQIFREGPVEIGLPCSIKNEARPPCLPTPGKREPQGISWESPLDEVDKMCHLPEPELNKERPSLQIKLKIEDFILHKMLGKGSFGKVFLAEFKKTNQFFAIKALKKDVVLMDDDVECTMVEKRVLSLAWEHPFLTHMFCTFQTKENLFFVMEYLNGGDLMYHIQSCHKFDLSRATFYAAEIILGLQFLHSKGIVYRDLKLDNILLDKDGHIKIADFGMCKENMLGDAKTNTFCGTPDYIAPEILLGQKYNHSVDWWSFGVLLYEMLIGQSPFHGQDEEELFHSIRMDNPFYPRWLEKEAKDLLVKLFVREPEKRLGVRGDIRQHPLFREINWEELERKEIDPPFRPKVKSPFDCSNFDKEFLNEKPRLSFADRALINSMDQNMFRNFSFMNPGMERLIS
Experiment: Inhibition of PKC theta
Format: biochemical
Settings: not given

`CCN(CC)CCCC(C)Nc1ccc2ncc(-c3ccccc3)n2n1` (stereo not drawn) [KE1322-010-a] and `CCN(CC)CCCNc1ccc2ncc(-c3ccccc3)n2n1` [KE1322-011-a] are within 1.5-fold of each other in IC50: 5400 nM for the first, 5500 nM for the second.

Compared with `Clc1cccc(-c2cnc3ccc(NCCCN4CCCC4)nn23)c1` [OP 3073], `Clc1cccc(-c2cnc3ccc(NCCN4CCCC4)nn23)c1` [KE1322-024-a] is 6.8-fold higher in IC50: 250 nM for the first, 1700 nM for the second.

Going from `Clc1cccc(-c2cnc3ccc(NCCCn4ccnc4)nn23)c1` [KE1322-014-a] to `c1ccc(-c2cnc3ccc(NCCCn4ccnc4)nn23)cc1` [KE1322-002-a], the IC50 rises from 7200 nM to 12900 nM (1.8-fold). The first is the more potent here.

`Cc1[nH]ncc1CCCNc1ccc2ncc(-c3ccccc3)n2n1` [KE1322-006-a] and `Cc1[nH]ncc1CCCNc1ccc2ncc(-c3ccsc3)n2n1` [KE1322-042-a] are within 1.5-fold of each other in IC50: 11300 nM for the first, 13000 nM for the second.

Going from `c1ccc(-c2cnc3ccc(NCCCN4CCOCC4)nn23)cc1` [OP 3071] to `c1ccc(-c2cnc3ccc(NCCCN4CCCC4)nn23)cc1` [OP 3070], the IC50 falls from 17000 nM to 6100 nM (2.8-fold). The second is the more potent here.

`Cn1cc(-c2cnc3ccc(NCC4CCCCC4)nn23)cn1` [KE1322-028-a] and `Cc1[nH]ncc1CCCNc1ccc2ncc(-c3cnn(C)c3)n2n1` [KE1322-030-a] are within 1.5-fold of each other in IC50: 7000 nM for the first, 7200 nM for the second.

`CCN(CC)CCCC(C)Nc1ccc2ncc(-c3cccc(Cl)c3)n2n1` (stereo not drawn) [KE1322-022-a] and `CCN(CC)CCCNc1ccc2ncc(-c3cccc(Cl)c3)n2n1` [KE1322-023-a] are within 1.5-fold of each other in IC50: 220 nM for the first, 250 nM for the second.

In the case of `Clc1cccc(-c2cnc3ccc(NCCCN4CCOCC4)nn23)c1` [OP 3074], the IC50 is reported as 410 nM.

From patent publication US7750000B2, “Substituted imidazo[1,2b]pyridazines as kinase inhibitors, their preparation and use as medicaments” (Bayer Schering Pharma AG, priority 2005, dated 2010)
